Results: ChEMBL document CHEMBL1201862, “PubChem BioAssay data set” (2004)
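96-well plates; 48 h exposure; 5 concentrations. Endpoints by linear interpolation between flanking doses. Not reached: highest tested concentration assigned. The concentration for 50% growth inhibition is given as GI50.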 Activity calls are given as the source filed them. Cut-off read from the data, not from the text of the source: active = GI50 up to about 1.1 µM and inactive = higher.

Assays:
Assay in all cases: DTP human tumour cell line panel, 48 h
786-0 = tested on: 786-0
A498 = tested on: A498
A549 = tested on: A549
ACHN = tested on: ACHN
BT-549 = tested on: BT-549
CAKI-1 = tested on: CAKI-1
CCRF-CEM = tested on: CCRF-CEM
COLO 205 = tested on: COLO 205
DU-145 = tested on: DU-145
EKVX = tested on: EKVX
HCC 2998 = tested on: HCC 2998
HCT-116 = tested on: HCT-116
HCT-15 = tested on: HCT-15
HL-60 = tested on: HL-60
HOP-62 = tested on: HOP-62
HOP-92 = tested on: HOP-92
HT-29 = tested on: HT-29
Hs-578T = tested on: Hs-578T
IGROV-1 = tested on: IGROV-1
K562 = tested on: K562
KM12 = tested on: KM12
LOX IMVI = tested on: LOX IMVI
M14 = tested on: M14
MCF7 = tested on: MCF7
MDA-MB-231 = tested on: MDA-MB-231
MDA-MB-435 = tested on: MDA-MB-435
MDA-N = tested on: MDA-N
MOLT-4 = tested on: MOLT-4
Malme-3M = tested on: Malme-3M
NCI-H226 = tested on: NCI-H226
NCI-H23 = tested on: NCI-H23
NCI-H460 = tested on: NCI-H460
NCI-H522 = tested on: NCI-H522
NCI/ADR-RES = tested on: NCI/ADR-RES
OVCAR-3 = tested on: OVCAR-3
OVCAR-4 = tested on: OVCAR-4
OVCAR-5 = tested on: OVCAR-5
OVCAR-8 = tested on: OVCAR-8
PC-3 = tested on: PC-3
RPMI-8226 = tested on: RPMI-8226
RXF 393 = tested on: RXF 393
SF-268 = tested on: SF-268
SF-295 = tested on: SF-295
SF-539 = tested on: SF-539
SK-MEL-28 = tested on: SK-MEL-28
SK-MEL-2 = tested on: SK-MEL-2
SK-MEL-5 = tested on: SK-MEL-5
SN12C = tested on: SN12C
SNB-19 = tested on: SNB-19
SNB-75 = tested on: SNB-75
SR = tested on: SR
SW-620 = tested on: SW-620
T47D = tested on: T47D
U-251 = tested on: U-251
UACC-257 = tested on: UACC-257
UACC-62 = tested on: UACC-62
UO-31 = tested on: UO-31
SK-OV-3 = tested on: SK-OV-3
TK-10 = tested on: TK-10

Cc1c(O)oc2ccccc2c1=O
GI50 (786-0): > 100 µM (inactive)
GI50 (A498): > 100 µM (inactive)
GI50 (A549): > 100 µM (inactive)
GI50 (ACHN): > 100 µM (inactive)
GI50 (BT-549): > 100 µM (inactive)
GI50 (CAKI-1): > 100 µM (inactive)
GI50 (CCRF-CEM): > 100 µM (inactive)
GI50 (COLO 205): > 100 µM (inactive)
GI50 (DU-145): > 100 µM (inactive)
GI50 (EKVX): > 100 µM (inactive)
GI50 (HCC 2998): > 100 µM (inactive)
GI50 (HCT-116): > 100 µM (inactive)
GI50 (HCT-15): > 100 µM
GI50 (HL-60): > 100 µM (inactive)
GI50 (HOP-62): > 100 µM (inactive)
GI50 (HOP-92): > 100 µM (inactive)
GI50 (HT-29): > 100 µM (inactive)
GI50 (Hs-578T): > 100 µM (inactive)
GI50 (IGROV-1): > 100 µM (inactive)
GI50 (K562): > 100 µM (inactive)
GI50 (KM12): > 100 µM (inactive)
GI50 (LOX IMVI): > 100 µM (inactive)
GI50 (M14): > 100 µM (inactive)
GI50 (MCF7): > 100 µM (inactive)
GI50 (MDA-MB-231): > 100 µM (inactive)
GI50 (MDA-MB-435): > 100 µM (inactive)
GI50 (MDA-N): > 100 µM (inactive)
GI50 (MOLT-4): > 100 µM (inactive)
GI50 (Malme-3M): > 100 µM (inactive)
GI50 (NCI-H226): > 100 µM (inactive)
GI50 (NCI-H23): > 100 µM (inactive)
GI50 (NCI-H460): > 100 µM (inactive)
GI50 (NCI-H522): > 100 µM (inactive)
GI50 (NCI/ADR-RES): > 100 µM (inactive)
GI50 (OVCAR-3): > 100 µM (inactive)
GI50 (OVCAR-4): > 100 µM (inactive)
GI50 (OVCAR-5): > 100 µM (inactive)
GI50 (OVCAR-8): > 100 µM (inactive)
GI50 (PC-3): > 100 µM (inactive)
GI50 (RPMI-8226): > 100 µM (inactive)
GI50 (RXF 393): > 100 µM (inactive)
GI50 (SF-268): > 100 µM (inactive)
GI50 (SF-295): > 100 µM (inactive)
GI50 (SF-539): > 100 µM (inactive)
GI50 (SK-MEL-28): > 100 µM (inactive)
GI50 (SK-MEL-2): > 100 µM (inactive)
GI50 (SK-MEL-5): > 100 µM (inactive)
GI50 (SN12C): > 100 µM (inactive)
GI50 (SNB-19): > 100 µM (inactive)
GI50 (SNB-75): > 100 µM (inactive)
GI50 (SR): > 100 µM (inactive)
GI50 (SW-620): > 100 µM (inactive)
GI50 (T47D): > 100 µM (inactive)
GI50 (U-251): > 100 µM (inactive)
GI50 (UACC-257): > 100 µM (inactive)
GI50 (UACC-62): > 100 µM (inactive)
GI50 (UO-31): > 100 µM (inactive)

CC1(C)OCC(C2OC(N3O[C@H](CI)C[C@@H]3c3ccccc3)C3OC(C)(C)OC23)O1 (stereo partly specified)
GI50 (786-0): > 100 µM (inactive)
GI50 (A498): > 100 µM (inactive)
GI50 (A549): > 100 µM (inactive)
GI50 (ACHN): > 100 µM (inactive)
GI50 (BT-549): 99.3 µM (inactive)
GI50 (CAKI-1): > 100 µM (inactive)
GI50 (CCRF-CEM): > 100 µM (inactive)
GI50 (COLO 205): > 100 µM (inactive)
GI50 (DU-145): > 100 µM (inactive)
GI50 (EKVX): > 100 µM (inactive)
GI50 (HCC 2998): > 100 µM (inactive)
GI50 (HCT-116): 61 µM (inactive)
GI50 (HCT-15): > 100 µM
GI50 (HL-60): 66.5 µM (inactive)
GI50 (HOP-62): > 100 µM (inactive)
GI50 (HOP-92): > 100 µM (inactive)
GI50 (HT-29): 61.9 µM (inactive)
GI50 (Hs-578T): > 100 µM (inactive)
GI50 (IGROV-1): > 100 µM (inactive)
GI50 (K562): > 100 µM (inactive)
GI50 (KM12): > 100 µM (inactive)
GI50 (LOX IMVI): > 100 µM (inactive)
GI50 (M14): 82 µM (inactive)
GI50 (MCF7): > 100 µM (inactive)
GI50 (MDA-MB-231): > 100 µM (inactive)
GI50 (MDA-MB-435): > 100 µM (inactive)
GI50 (MDA-N): > 100 µM (inactive)
GI50 (Malme-3M): > 100 µM (inactive)
GI50 (NCI-H23): > 100 µM (inactive)
GI50 (NCI-H460): 56.1 µM (inactive)
GI50 (NCI-H522): > 100 µM (inactive)
GI50 (NCI/ADR-RES): > 100 µM (inactive)
GI50 (OVCAR-3): > 100 µM (inactive)
GI50 (OVCAR-4): > 100 µM (inactive)
GI50 (OVCAR-5): > 100 µM (inactive)
GI50 (PC-3): 34 µM (inactive)
GI50 (RPMI-8226): 43 µM (inactive)
GI50 (RXF 393): > 100 µM (inactive)
GI50 (SF-268): > 100 µM (inactive)
GI50 (SF-295): > 100 µM (inactive)
GI50 (SF-539): > 100 µM (inactive)
GI50 (SK-MEL-28): > 100 µM (inactive)
GI50 (SK-MEL-2): > 100 µM (inactive)
GI50 (SK-MEL-5): 48.8 µM (inactive)
GI50 (SK-OV-3): > 100 µM (inactive)
GI50 (SN12C): > 100 µM (inactive)
GI50 (SNB-19): > 100 µM (inactive)
GI50 (SNB-75): > 100 µM (inactive)
GI50 (SR): 48.5 µM (inactive)
GI50 (SW-620): > 100 µM (inactive)
GI50 (T47D): > 100 µM (inactive)
GI50 (TK-10): > 100 µM (inactive)
GI50 (U-251): > 100 µM (inactive)
GI50 (UACC-257): > 100 µM (inactive)
GI50 (UACC-62): > 100 µM (inactive)
GI50 (UO-31): > 100 µM (inactive)

Cc1cc(=O)c2ccccc2n1CCCCCCCCCCn1c(C)cc(=O)c2ccccc21
GI50 (786-0): 16.4 µM (inactive)
GI50 (A498): 15.1 µM (inactive)
GI50 (A549): 20 µM (inactive)
GI50 (ACHN): 25.2 µM (inactive)
GI50 (BT-549): 11 µM (inactive)
GI50 (CAKI-1): 21.6 µM (inactive)
GI50 (CCRF-CEM): 12.1 µM (inactive)
GI50 (COLO 205): 21.9 µM (inactive)
GI50 (DU-145): 14 µM (inactive)
GI50 (EKVX): 11.7 µM (inactive)
GI50 (HCC 2998): 11.8 µM (inactive)
GI50 (HCT-116): 8.09 µM (inactive)
GI50 (HCT-15): 31.3 µM
GI50 (HL-60): 4.38 µM (inactive)
GI50 (HOP-62): > 100 µM (inactive)
GI50 (HOP-92): 22.4 µM (inactive)
GI50 (HT-29): 15.9 µM (inactive)
GI50 (Hs-578T): 23.8 µM (inactive)
GI50 (IGROV-1): 17.2 µM (inactive)
GI50 (K562): 4.68 µM (inactive)
GI50 (KM12): 15.9 µM (inactive)
GI50 (LOX IMVI): 5.53 µM (inactive)
GI50 (M14): 34.9 µM (inactive)
GI50 (MCF7): > 10 µM (inactive)
GI50 (MDA-MB-231): 29.5 µM (inactive)
GI50 (MDA-MB-435): 14.8 µM (inactive)
GI50 (MDA-N): 17.5 µM (inactive)
GI50 (MOLT-4): 8.69 µM (inactive)
GI50 (Malme-3M): 15.7 µM (inactive)
GI50 (NCI-H226): 20.5 µM (inactive)
GI50 (NCI-H23): 3.94 µM (inactive)
GI50 (NCI-H460): 15.7 µM (inactive)
GI50 (NCI-H522): 14.4 µM (inactive)
GI50 (NCI/ADR-RES): 16.6 µM (inactive)
GI50 (OVCAR-3): 37.3 µM (inactive)
GI50 (OVCAR-4): 15.4 µM (inactive)
GI50 (OVCAR-5): > 100 µM (inactive)
GI50 (OVCAR-8): 16.8 µM (inactive)
GI50 (PC-3): 28.8 µM (inactive)
GI50 (RXF 393): 26.1 µM (inactive)
GI50 (SF-268): 30.2 µM (inactive)
GI50 (SF-295): > 10 µM (inactive)
GI50 (SF-539): 25.8 µM (inactive)
GI50 (SK-MEL-28): 20.8 µM (inactive)
GI50 (SK-MEL-2): > 10 µM (inactive)
GI50 (SK-MEL-5): 0.64 µM (active)
GI50 (SK-OV-3): 19.3 µM (inactive)
GI50 (SN12C): 21.4 µM (inactive)
GI50 (SNB-19): 18.1 µM (inactive)
GI50 (SNB-75): 30.2 µM (inactive)
GI50 (SR): 13.2 µM (inactive)
GI50 (SW-620): 20.4 µM (inactive)
GI50 (T47D): 16.3 µM (inactive)
GI50 (TK-10): 14.1 µM (inactive)
GI50 (U-251): 15.6 µM (inactive)
GI50 (UACC-257): 11.7 µM (inactive)
GI50 (UACC-62): 17.1 µM (inactive)
GI50 (UO-31): 12 µM (inactive)
